Laboratory results published in patent US20210059995A1, “Composition for Protecting Cornea” (Kyoto University, priority 2017, published 2021).

Key:
[1] = tested on: rabbit corneal epithelial cells; test: Rabbit corneas preserved in Optisol-GS: apoptosis of corneal epithelial cells by TUNEL assay; conditions: Optisol-GS at 4° C., 1-4 weeks; KUS121 50 μM, KUS187 20 μM; FIG. 8-10
Protocol: (§1) Japanese white rabbits were euthanized, whole eyeballs were excised, and sclerocorneal preparations were prepared by using a razor blade. Each four sclerocorneal preparations were preserved in the following preservation solutions at 4° C. for 4 weeks; (1) Optisol-GS (control), (2) Optisol-GS+KUS121 (50 μM), or (3) Optisol-GS+KUS187 (20 μM). The tissues were sequentially embedded and sectioned.
The tissue sections were fluorescently stained by TUNEL method and observed by confocal microscopy. Images of the epithelial layers around the centers of the corneas were obtained in three different fields (FIG. 8). […] The total corneal epithelial cells stained with PI and the TUNEL-positive cells were counted and the percentages of the TUNEL-positive cells were calculated. The percentages were compared over time among the preservation conditions (FIG. 10). The TUNEL-positive apoptotic cells were increased in the corneal epithelial cells of the control group after week 1. The apoptosis was suppressed in the KUS121 and KUS187 groups.

[2] = tested on: immortalized human corneal endothelial cells (iHCECs); test: Western blot analysis of cleaved caspase 3 and PARP in thapsigargin-treated immortalized human corneal endothelial cells; format: cell-based; conditions: 10 μM thapsigargin for 8 hours, compound 10, 25, 50 or 100 μM, FIG. 5
Protocol: The medium was changed to the medium containing 10 μM thapsigargin (WAKO, 209-17281) and KUS121 (10 μM, 25 μM, 50 μM, or 100 μM), and the cells were cultured for 8 hours. Medium: DMEM+10% FBS+1% P/S
After the observation of the morphology, western blot analysis was performed by the following procedures.
The media were collected from each well on ice, the cells were washed twice with 1×PBS(−), and the washings were collected. In order to collect suspended cells and dead cells, the collected media and washings were centrifuged at 4° C., 800 g, for 12 minutes, the supernatants were discarded and the pellets were obtained. Protein extraction buffers (RIPA; 50 mM Tris-HCl (pH 7.4), 150 mM NaCl, 1 mM EDTA, 0.1% SDS, 0.5% DOC, 1% NP-40) were added to the washed cells on ice. The cells were suspended together with the pellets of the suspended cells and dead cells. […]
The protein extracts (7 μg each) were separated by SDS-PAGE and transferred to a nitrocellulose membrane. […] The signals were detected by Chemi Lumi ONE Ultra (NACALAI TESQUE, INC., 11644-40). The intensities of the detected bands were analyzed by luminescent image analyzer LAS-4000 mini (Fujifilm Corporation) and ImageQuant™ software (GE Healthcare).

[3] = tested on: immortalized human corneal endothelial cells (iHCECs); test: Cell morphology and apoptosis of thapsigargin-treated immortalized human corneal endothelial cells by phase-contrast microscopy; format: cell-based; conditions: 10 μM thapsigargin for 8 hours, compound 10, 25, 50 or 100 μM with 24 hours pretreatment, FIG. 4
Protocol: Corneas for research were imported from SightLife™ (Seattle, Wash.). The cornea endothelial cells were stripped from the corneas with Descemet's membranes and immersed in a corneal preservation solution (Optisol-GS, Bausch & Lomb Incorporated). The cornea endothelial cells were treated with collagenase and collected. The cells were cultured in a conditioned medium which was prepared by culturing 3T3 cells in OptiMEM (Gibco, 3195070) with 10% fetal bovine serum (FBS) for 24 hours and then adding 10 μM SB203580 (Funakoshi, 13067) and 1 μM SB431542 (Wako, 192-16541) to the culture medium.
The corneal endothelial cells were immortalized by the following procedures. SV40 large T antigen and hTERT genes were amplified by PCR, and introduced into a lentiviral vector (pLenti6.3-V5-TOPO; Life Technologies Inc.). The lentiviral vector and three helper plasmids (pLP1, pLP2, pLP/VSVG; Life Technologies Inc.) were transfected into 293T cells (RCB2202; Riken Bioresource Center, Ibaraki, Japan) with a transfection reagent (Fugene HD; Promega Corp., Madison, Wis.). The culture supernatant containing the virus was collected 48 hours after the transfection and added to the culture medium of the cornea endothelial cells with 5 μg/ml of Polybrene, thereby the SV40 large T antigen and hTERT genes were introduced into the cells. […]

[4] = tested on: rabbit corneal endothelial cells; test: Intracellular ATP concentration (luciferase assay) in cultured rabbit corneal endothelial cells; format: cell-based; conditions: compound 50 μM, FIG. 3
Protocol: (§2) Whole eyeballs of Japanese white rabbits (Funakoshi Corporation) were cut along corneal limbus with a razor blade and the corneas were isolated. The corneal endothelial cells were mechanically scraped off and collected with a crescent knife. Primary cultures were prepared in a DMEM with 10% fetal bovine serum and 2 ng/ml bFGF. The sub-confluent cells were treated with trypsin and collected, then plated on 12-well plates at the equal density of 4×10^4 cells/well and cultured in the same medium for 24 hours. The cells were subsequently cultured in the following eight different conditions: (1) control (the medium+DMSO), (2) the medium+KUS121 (50 μM), (3) the medium+antimycin (20 μM), (4) the medium+antimycin (20 μM)+KUS121 (50 μM), (5) the medium+oligomycin (10 μM), (6) the medium+oligomycin (10 μM)+KUS121 (50 μM), (7) DMEM with 2 ng/ml bFGF (non-glucose); and (8) DMEM with 2 ng/ml bFGF (non-glucose)+KUS121 (50 μM).
The corneal endothelial cells cultured in the presence of the agents (P=1) were washed with PBS(−), treated with trypsin, suspended in the medium (DMEM with 10% fetal bovine serum and 2 ng/ml bFGF), and counted. Then 2.5×10^4 cells were centrifuged, suspended in PBS(−), and dispensed into 5 wells of a 96-well plate at the density of 5×10^3 cells/well. The cells were subjected to a luciferase assay (“Cell” ATP Assay reagent, TOYO B-Net CO., LTD.). The fluorescence intensities were measured as relative intracellular ATP concentrations using a luminometer.

[5] = tested on: rabbit corneal endothelial cells; test: Rabbit corneas preserved in Optisol-GS: corneal endothelia by immunofluorescence staining of Na+/K+ ATPase; conditions: Optisol-GS at 4° C., from week 1; KUS121 50 μM, KUS187 20 μM; FIG. 11
Protocol: as §1
The tissue sections were fluorescently stained with anti-Na+/K+ ATPase antibody, the corneal endothelia around the centers of the corneas were observed by indirect immunofluorescence microscopy, and the images were compared over time among the preservation conditions (FIG. 11).

[6] = tested on: rabbit corneal endothelial cells; test: Cell morphology (phase-contrast) of cultured rabbit corneal endothelial cells under antimycin, oligomycin or glucose deprivation; format: cell-based; conditions: compound 50 μM
Protocol: as §2
After the addition of the agents, sequential phase-contrast images of the cultured corneal endothelial cells were obtained.

[7] = tested on: rabbit corneas; test: Rabbit corneas preserved in Optisol-GS: HE-staining microscopic findings and central corneal thickness; conditions: Optisol-GS at 4° C., 1-4 weeks, KUS121 50 μM, KUS187 20 μM; for swelling of corneal endothelial cells during preservation: control swelled at week 1; for swelling of corneal endothelial cells during preservation / swelling of corneal stroma during preservation: FIG. 6; for swelling of corneal stroma during preservation: control swelled at week 3; for corneal epitheliums and cornea thicknesses versus control group: especially at week 3 or later, FIG. 6, 7
Protocol: as §1
The tissue sections were stained with HE-staining and observed by microscopy. The images were compared over time among the preservation conditions (FIG. 6). Microscopic images of the sections including the central parts of the corneas were obtained and the central corneal thicknesses were measured and compared over time among the preservation conditions (FIG. 7). In the corneas preserved in Optisol-GS (control), the corneal endothelial cells swelled at week 1 and the corneal stroma swelled at week 3.

[8] = tested on: rabbit corneas; test: Rabbit corneas preserved in Optisol-GS: transmission electron microscopy; conditions: corneas preserved for one week in Optisol-GS at 4° C., compound 50 μM, FIG. 13
Protocol: as §1
Corneas preserved for one week were immersed in 0.1 M phosphate buffer containing 2% glutaraldehyde at 4° C. for prefixation, in 0.1 M phosphate buffer at 4° C. overnight for washing, and in 2% aqueous osmium solution at 4° C. for 3 hours for postfixation. For dehydration the corneas were successively immersed in ethanol solutions of high concentrations (50, 70, 90, 100, 100, and 100%) at 4° C. (50%) or a room temperature for 15 minutes. For substitution the corneas were immersed in propylene oxide at a room temperature for 45 minutes and then in a mixture of propylene oxide and epoxy resin at a room temperature for 1.5 hours. For embedding the samples and epoxy resin were put into capsules and cured at 60° C. for 48 hours. Then 80-90 nm sections were prepared by using an ultramicrotome and put on 200 meshes. The sections were stained with 2% uranyl acetate and lead and reinforced by carbon deposition (reinforcement of sections against electron beams). […]

Structure (SMILES) | TUNEL-positive cells among corneal epithelial cells versus control group [1] | band of cleaved caspase 3 (about 17 kDa) induced by thapsigargin [2] | deformation of the cells (cell damage) caused by thapsigargin [3] | decrease of intracellular ATP concentration in the absence of glucose ([4]; absence of glucose for 96 hours) | decrease of intracellular ATP concentration caused by antimycin ([4]; antimycin 20 μM for 27 hours) | decrease of intracellular ATP concentration caused by oligomycin ([4]; oligomycin 10 μM for 27 hours) | corneal endothelial cells (Na+/K+ ATPase staining) versus control group [5] | death of corneal endothelial cells caused by antimycin ([6]; antimycin 20 μM, 28 hours after addition of the agents, FIG. 1) | death of corneal endothelial cells caused by glucose deprivation ([6]; cultured without glucose, 96 hours, FIG. 2) | death of corneal endothelial cells caused by oligomycin ([6]; oligomycin 10 μM, 28 hours after addition of the agents, FIG. 1) | swelling of corneal endothelial cells during preservation [7] | swelling of corneal stroma during preservation [7] | corneal epitheliums and cornea thicknesses versus control group [7] | swelling of the corneal stroma and the corneal endothelial cells (electron microscopy) [8] | vacuolization of the corneal epithelial cells and loss of microvilli [8]
Cc1cc(F)ccc1-c1ccc(N=Nc2cc(S(=O)(=O)[O-])c3ccccc3c2N)cn1.[Na+] [KUS121, 4-amino-3-[6-(4-fluoro-2-methylphenyl)pyridine-3-ylazo]naphthalene-1-sulfonic acid sodium salt] | fewer through the test period than in the control group | hardly detected | the deformation was suppressed | the decrease was suppressed | the decrease was suppressed | the decrease was suppressed | maintained better | the cell death was suppressed | the cell death was suppressed | the cell death was suppressed | the cell swelling was suppressed until week 2 | the corneal stroma swelling was kept mild until week 4 | maintained better | observed in the control, but not in the corneas preserved in a solution containing KUS121 | observed in the control, but not in the corneas preserved in a solution containing KUS121
CCCCOc1c(C=O)cc(C)cc1-c1ccc(N=Nc2cc(S(=O)(=O)[O-])c3ccccc3c2N)cn1.[Na+] [KUS187, 4-amino-3-[6-(3-formyl-2-butoxy-5-methylphenyl)pyridine-3-ylazo]naphthalene-1-sulfonic acid sodium salt] | fewer through the test period than in the control group |  |  |  |  |  | maintained better |  |  |  | the cell swelling was suppressed until week 2 | the corneal stroma swelling was kept mild until week 4 | maintained better |  | 
